Source: patent publication US4606911A, “Pharmaceutical composition for the prevention of dental caries” (Rohto Pharmaceutical Co. Ltd., priority 1984, dated 1986)
Converted amounts (≈) assume the structure as drawn. “Also recorded” adds a separate entry of the source. Like-named read-outs stand apart in the source and are kept apart here.

Columns and labels:
Type in all cases: cell-based
[1] = system: Streptococcus mutans OMZ 176; assay: Antibacterial activity (MIC, growth in BHI medium); set-up: key to Antibacterial activity (growth): -: grow; ±: slightly grow; +: not grow
Protocol: (§1) To a test tube was charged 3.8 ml of Brain Heart Infusion (BHI) medium, and 100 μl of a sample solution containing oleanolic, ursolic or glycyrrhetic acid and 100 μl of pre-incubated culture of bacterium selected from those listed below were added thereto. The mixture was incubated at 37° C. and then allowed to stand over night. The extent of the growth of bacterium was observed after two or five days.
Streptococcus mutans OMZ 176

[2] = system: S. mutans OMZ 176 (serotype d); assay: microbe, parasite or virus in culture; details: for minimal effective concentration / inhibition at 10 µg/mL / inhibition at 20 µg/mL / inhibition at 30 µg/mL / inhibition at 50 µg/mL / inhibition at 100 µg/mL: Streptococcus mutans; for minimal effective concentration: 20 h, read-out: concentration at which adherence of the bacterial cells is inhibited; for inhibition at 10 µg/mL / inhibition at 20 µg/mL / inhibition at 30 µg/mL / inhibition at 50 µg/mL / inhibition at 100 µg/mL: read-out: Adherence-inhibiting activity (AIP)
Protocol: The adherence-inhibiting activity of the triterpenes of the formula (I) was measured using an inner wall of a test tube in place of the surface of a tooth.
To 2.9 ml of BHI medium containing 5% sucrose in a test tube (i) are added 30 μl of a sample solution prepared by dissolving a compound of: the formula (I) in H2 O or dimethylsulfoxide (DMSO) and 100 μl of culture medium containing S. mutans OMZ 176 (serotype d) which was preincuvated at 37° C. for 24 hours in BHI medium, and the mixture is incubated at 37° C. for 20 hours, with the test tube being maintained at a slant of 30°. The test tube is revolved gently two or three times and the supernatant is transferred to another test tube (ii). To the first test tube (i) is added 3 ml of 50 mM phosphate buffer (pH 7.5), and the test tube is gently revolved two or three times. The resultant supernatant is transferred to the third test tube (iii). The test tubes (ii) and (iii) are each centrifuged and respective supernatants are discarded. To each of the test tubes (i), (ii) and (iii) is added 3 ml of 0.5M NaOH, and the test tubes are shaken to suspend bacterial cells. Absorbance of the resulting suspension is measured at 660 nm. The absorbances obtained with respect to the test tube (i), (ii) and (iii) are represented by Ab(i), Ab(ii) and Ab(iii), respectively. Ab(i) reflects the amount of the bacterial cells adhered to the wall of the test tube and Ab(ii) and Ab(iii) correspond to the amount of the bacterial cells not adhered to the wall.
The same procedure is repeated using 30 μl of distilled water or DMSO in place of the sample solution to obtain a control. The absorbance of the control is represented by Ab(Cont.).
Adherence percentage of bacteria is calculated from the following equation. [formula]
Adherence inhibitory percentage (AIP) is calculated using the adherence percentage according to the following equation. [formula]
The magnitude of adherence-inhibiting activity of each of the samples is shown, in Table 3, by the use of the following symbols: […]

bacterial cells = assay: Adherence of bacterial cells to the surface of an extracted tooth; details: extracted tooth suspended in a culture medium containing sucrose
[3] = system: Streptococcus salivarius ATCC 9222; assay: Antibacterial activity (MIC, growth in BHI medium); set-up: key to Antibacterial activity (growth): -: grow; ±: slightly grow; +: not grow
Protocol: as §1, with “days. The MIC value was determined for each sample and summarized in Table 2. |Streptococcus salivarius ATCC 9222” for “days.”

[4] = system: Bacillus megaterium QM B1551; assay: Antibacterial activity (MIC, growth in BHI medium); set-up: key to Antibacterial activity (growth): -: grow; ±: slightly grow; +: not grow
Protocol: as §1, with “days. The MIC value was determined for each sample and summarized in Table 2. |Bacillus megaterium QM B1551” for “days.”

[5] = text statement, listed as pomolic acid

CC1(C)CC[C@]2(C(=O)O)CC[C@]3(C)C(=CC[C@@H]4[C@@]5(C)CC[C@H](O)[C@@](C)(CO)[C@@H]5CC[C@]43C)[C@@H]2C1 [Hederagenin]
antibacterial activity to S. mutans (in words) [1]: almost the same antibacterial activity as oleanolic acid; also recorded: have both of the adherence-inhibiting activity and the selective antibacterial activity to S. mutans; also recorded: have both activities | antibacterial activity at 10 μg/ml (in words) ([1]; 10 μg/ml): ineffective for exhibiting antibacterial activity | adherence-inhibiting activity (in words) [2]: have both of the adherence-inhibiting activity and the selective antibacterial activity to S. mutans; also recorded: have both activities | minimal effective concentration [2]: 10 µg/mL | inhibition at 10 µg/mL [2]: < 25% | inhibition at 20 µg/mL [2]: > 50% | inhibition at 30 µg/mL [2]: > 50% | inhibition at 50 µg/mL [2]: > 50% | inhibition at 100 µg/mL [2]: > 50% | adherence of bacterial cells to the surface of an extracted tooth (bacterial cells): completely inhibited

C[C@@H]1CC[C@]2(C(=O)O)CC[C@]3(C)C(=CC[C@@H]4[C@@]5(C)CC[C@H](O)C(C)(C)[C@@H]5CC[C@]43C)[C@@H]2[C@]1(C)O [Pomolic acid]
antibacterial activity at 10 μg/ml (in words) ([1]; 10 μg/ml): ineffective for exhibiting antibacterial activity | antibacterial activity to S. mutans (in words) ([1]; text statement): almost the same antibacterial activity as oleanolic acid | antibacterial activity to S. mutans (in words) [1, 5]: have both of the adherence-inhibiting activity and the selective antibacterial activity to S. mutans; also recorded: have both activities | minimal effective concentration [2]: 10 µg/mL | inhibition at 10 µg/mL [2]: < 25% | inhibition at 20 µg/mL [2]: > 50% | inhibition at 30 µg/mL [2]: > 50% | inhibition at 50 µg/mL [2]: > 50% | inhibition at 100 µg/mL [2]: > 50% | adherence-inhibiting activity (in words) [2, 5]: have both of the adherence-inhibiting activity and the selective antibacterial activity to S. mutans; also recorded: have both activities | adherence of bacterial cells to the surface of an extracted tooth (bacterial cells): completely inhibited

C[C@H]1[C@H](C)CC[C@]2(C(=O)O)CC[C@]3(C)C(=CC[C@@H]4[C@@]5(C)CC[C@H](O)C(C)(C)[C@@H]5CC[C@]43C)[C@H]12 [Ursolic acid]
antibacterial activity to S. mutans (in words) [1]: also exhibit the selective activity on S. mutans, although the magnitude of the activity is each less than that of glycyrrthetic acid; also recorded: have both of the adherence-inhibiting activity and the selective antibacterial activity to S. mutans; also recorded: have both activities | Antibacterial activity (growth) ([1]; 10 μg/ml): - | antibacterial activity at 10 μg/ml (in words) ([1]; 10 μg/ml): ineffective for exhibiting antibacterial activity | Antibacterial activity (growth) ([1]; 25 μg/ml): - | Antibacterial activity (growth) ([1]; 50 μg/ml): + | Antibacterial activity (growth) ([1]; 100 μg/ml): + | Antibacterial activity (growth) ([1]; 200 μg/ml): + | Antibacterial activity (growth) ([1]; 400 μg/ml): + | MIC ([1]; Streptococcus mutans, OMZ176, Streptococcus mutans OMZ 176, BHI, 37° C., read-out: MIC (minimum inhibitory concentration)): 25 µg/mL (≈ 54.7 µM) | Antibacterial activity (growth) ([3]; 10 μg/ml): - | Antibacterial activity (growth) ([3]; 25 μg/ml): - | Antibacterial activity (growth) ([3]; 50 μg/ml): + | Antibacterial activity (growth) ([3]; 100 μg/ml): + | Antibacterial activity (growth) ([3]; 200 μg/ml): + | Antibacterial activity (growth) ([3]; 400 μg/ml): + | MIC ([3]; ATCC9222, Streptococcus salivarius, BHI, 37° C., read-out: MIC (minimum inhibitory concentration)): 25 µg/mL (≈ 54.7 µM) | Antibacterial activity (growth) ([4]; 10 μg/ml): - | Antibacterial activity (growth) ([4]; 25 μg/ml): - | Antibacterial activity (growth) ([4]; 50 μg/ml): - | Antibacterial activity (growth) ([4]; 100 μg/ml): - | Antibacterial activity (growth) ([4]; 200 μg/ml): - | Antibacterial activity (growth) ([4]; 400 μg/ml): - | MIC ([4]; Priestia megaterium, QMB1551, Bacillus megaterium, BHI, 37° C., read-out: MIC (minimum inhibitory concentration)): > 200 µg/mL | adherence-inhibiting activity (in words) [2]: have both of the adherence-inhibiting activity and the selective antibacterial activity to S. mutans; also recorded: have both activities | minimal effective concentration [2]: 10 µg/mL | inhibition at 10 µg/mL [2]: > 50% | inhibition at 20 µg/mL [2]: > 50% | inhibition at 30 µg/mL [2]: > 50% | inhibition at 50 µg/mL [2]: > 50% | inhibition at 100 µg/mL [2]: > 50% | adherence of bacterial cells to the surface of an extracted tooth (bacterial cells): completely inhibited
